# Patent US7238524B2, “Prostate cancer cell lines” (Board of Regents of the University of Nebraska, priority 2001, dated 2007)
# Columns and labels:
# Format in all cases: cell-based, human
# ERK/MAPK = experiment: Western blot of ERK/MAPK activation in NE-like subclone cells with MEK inhibitor; details: NE-like subclone cells (NE-1-3), FIG. 7B
# Excerpt: (§1) FIGS. 7A-7C show three western blots. FIG. 7A is a western blot showing levels of MEK and phosphorylated MEK in LNCaP cells and three NE-like subclone cells, NE-1-3, NE-1-8 and NE-1-9. FIG. 7B is a western blot showing inhibition of ERK activation levels in the presence of the MEK inhibitor, PD098059, in NE-1-3 subclone cells. FIG. 7C is a western blot showing inhibition of NSE expression levels mediated by the MEK inhibitor, PD098059, in steroid-reduced medium.
# (§2) To test the causal relationship of ERK/MAPK activation with NE-like transdifferentiation, MEKs, up-stream regulators of ERK/MAPK kinases, were examined to determine if they are also activated in the NE-like subclone cells.
# NSE [1] = experiment: Induction of NE transdifferentiation (NSE expression, western blot) in LNCaP cells cultured in steroid-reduced condition; details: androgen-responsive LNCaP cells in steroid-reduced condition, FIG. 7C
# Excerpt: as §1, §2
# LNCaP cells = experiment: Effect of butyrate on LNCaP cell growth; details: butyrate treatment, FIG. 10A
# Procedure: (§3) FIGS. 10A and 10B show a pair of graphs illustrating the effects of sodium butyrate on LNCaP cell population (FIG. 10A) accompanied by a western blot showing resolution of NSE and RPTPα expression levels in LNCaP cells in the presence of increasing concentrations of sodium butyrate (FIG. 10B).
# (§4) The regulation of RPTPα expression was then investigated in prostate cancer cells. The regulation of RPTPα expression was measured using butyrate since this pharmacological reagent induces cellular differentiation and has been utilized in the clinical trials for advanced prostate cancer therapy (29). […] This 160 kDa protein may represent an isoform of RPTPα, due to post-translational modifications (27,28).
# NSE [2] = experiment: Western blot of NSE expression in butyrate-treated LNCaP cells; details: increasing concentrations of sodium butyrate, FIG. 10B
# Procedure: as §3, §4
# RPTPα = experiment: Western blot of RPTPα expression in butyrate-treated LNCaP cells; details: increasing concentrations of sodium butyrate, FIG. 10B
# Procedure: as §3, §4
Structure (SMILES),activation of ERK/MAPK (phosphorylated ERK) (ERK/MAPK),induction of NE transdifferentiation (NSE expression) (NSE [1]),growth of LNCaP cells (LNCaP cells),NSE protein expression (NSE [2]),RPTPα protein expression (RPTPα)
COc1cccc(-c2cc(=O)c3ccccc3o2)c1N [PD098059],effectively inhibited,abolished,–,–,–
"CCCC(=O)[O-].[Na+] [Butyrate, sodium butyrate]",–,–,growth suppression,elevated levels,elevated levels
